In patent US20050178959A1, “Methods and compositions for assessing a sample by maldi mass spectrometry” (priority 2004, published 2005):
Non-standard residues stand in square brackets, D forms with d. No end group written: not given here. *: point of attachment. Biotin = O=C1N[C@H]2[C@H](CS[C@H]2CCCCC(=O)*)N1; pT = C[C@@H](OP(=O)(O)O)[C@H](N)C(=O)O; pS = N[C@@H](COP(=O)(O)O)C(=O)O

T1: GST-FBP21 (a protein having WW domain) (Homo sapiens, UniProt O75554)
T1 construct: GST
T1 sequence (O75554 1-376): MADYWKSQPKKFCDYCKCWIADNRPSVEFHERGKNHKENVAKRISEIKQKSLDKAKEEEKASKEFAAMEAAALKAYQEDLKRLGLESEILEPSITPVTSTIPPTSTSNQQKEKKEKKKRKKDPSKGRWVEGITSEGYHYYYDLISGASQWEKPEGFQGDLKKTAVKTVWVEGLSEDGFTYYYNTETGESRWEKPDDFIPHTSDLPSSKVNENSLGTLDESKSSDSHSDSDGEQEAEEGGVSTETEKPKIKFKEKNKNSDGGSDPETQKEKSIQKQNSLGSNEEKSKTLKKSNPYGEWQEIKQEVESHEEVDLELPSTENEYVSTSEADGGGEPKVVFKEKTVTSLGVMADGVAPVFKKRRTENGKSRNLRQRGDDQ

T2: GST-FBP21 (a protein having WW domain)
T2 sequence (O75554 whole entry, species assumed, looked up): T1 sequence (O75554 1-376)

B1: Kir2.1 biotinylated peptide (Biotin-…-COOH) (peptide)
peptide: Biotin-SGSGPRPLRRESEI-OH
SMILES: CC[C@H](C)[C@H](NC(=O)[C@H](CCC(=O)O)NC(=O)[C@H](CO)NC(=O)[C@H](CCC(=O)O)NC(=O)[C@H](CCCNC(=N)N)NC(=O)[C@H](CCCNC(=N)N)NC(=O)[C@H](CC(C)C)NC(=O)[C@@H]1CCCN1C(=O)[C@H](CCCNC(=N)N)NC(=O)[C@@H]1CCCN1C(=O)CNC(=O)[C@H](CO)NC(=O)CNC(=O)[C@H](CO)NC(=O)CCCC[C@@H]1SC[C@@H]2NC(=O)N[C@@H]21)C(=O)O
B2: COXG biotinylated phosphopeptide (Biotin-…*EL-COOH) (peptide)
peptide: Biotin-SGSGVLIKRRS[pT]EL-OH
SMILES: CC[C@H](C)[C@H](NC(=O)[C@H](CC(C)C)NC(=O)[C@@H](NC(=O)CNC(=O)[C@H](CO)NC(=O)CNC(=O)[C@H](CO)NC(=O)CCCC[C@@H]1SC[C@@H]2NC(=O)N[C@@H]21)C(C)C)C(=O)N[C@@H](CCCCN)C(=O)N[C@@H](CCCNC(=N)N)C(=O)N[C@@H](CCCNC(=N)N)C(=O)N[C@@H](CO)C(=O)N[C@H](C(=O)N[C@@H](CCC(=O)O)C(=O)N[C@@H](CC(C)C)C(=O)O)[C@@H](C)OP(=O)(O)O
B3: Kir2.1* biotinylated phosphopeptide (Biotin-…*EI-COOH) (peptide)
peptide: Biotin-SGSGPRPLRRE[pS]EI-OH
SMILES: CC[C@H](C)[C@H](NC(=O)[C@H](CCC(=O)O)NC(=O)[C@H](COP(=O)(O)O)NC(=O)[C@H](CCC(=O)O)NC(=O)[C@H](CCCNC(=N)N)NC(=O)[C@H](CCCNC(=N)N)NC(=O)[C@H](CC(C)C)NC(=O)[C@@H]1CCCN1C(=O)[C@H](CCCNC(=N)N)NC(=O)[C@@H]1CCCN1C(=O)CNC(=O)[C@H](CO)NC(=O)CNC(=O)[C@H](CO)NC(=O)CCCC[C@@H]1SC[C@@H]2NC(=O)N[C@@H]21)C(=O)O
B4: COXD biotinylated peptide (Biotin-…-COOH) (peptide)
peptide: Biotin-SGSGVLIKRRSTEL-OH
SMILES: CC[C@H](C)[C@H](NC(=O)[C@H](CC(C)C)NC(=O)[C@@H](NC(=O)CNC(=O)[C@H](CO)NC(=O)CNC(=O)[C@H](CO)NC(=O)CCCC[C@@H]1SC[C@@H]2NC(=O)N[C@@H]21)C(C)C)C(=O)N[C@@H](CCCCN)C(=O)N[C@@H](CCCNC(=N)N)C(=O)N[C@@H](CCCNC(=N)N)C(=O)N[C@@H](CO)C(=O)N[C@H](C(=O)N[C@@H](CCC(=O)O)C(=O)N[C@@H](CC(C)C)C(=O)O)[C@@H](C)O

Assays:
[1] = target: T1, GST-FBP21 (a protein having WW domain); assay: Peptide capture on streptavidin-agarose beads in filter plate, tryptic digestion, MALDI MS detection of bound GST-FBP21; conditions: sample GST-FBP21; m/z 1138.7 or 1152.8; signal size of about 1000 or more indicates significant binding
Description: (§1) To make the peptide array, the wells of a multiwell (i.e., 96-well filtration plate from Millipore having a pore size of 1.2 μm) filtration plate were first filled with a known volume of a suspension containing Streptavidin-linked agarose beads (Sigma). The biotinylated peptides were added (each in a separate well) and allowed to incubate with the avidin beads for a defined time interval following which vacuum (5-6 in. Hg) was applied to remove excess liquid. The immobilized peptides were then ready to be incubated with the protein mixture (e.g., a brain extract). After incubation, the peptide-protein complexes were washed in parallel, and subsequently subjected to enzymatic digestion (following in-gel digestion protocol). After digestion directly in the membrane plate, the digests were transferred to a MALDI plate for MS analysis, after concentration using a C18 resin-containing Millipore C18 ZIPTIP™ pipette tips.
(§2) In detail, 40 μL of streptavidin-agarose conjugate (Sigma S1638) was added to each well of a 96 well membrane filter plate washed with 200 μL of 1 mM TRIS HCl pH 7.5 (TRIS buffer) buffer using vacuum filtration. The beads were not allowed to dry out. The capture agents (e.g., biotinylated peptides, biotinylated antibodies, tagged proteins) were diluted with 1 mM TRIS HCl pH 7.5 buffer and 20 μL of each capture agent solution (at concentration of 1-2 mg/mL) was added to wells containing the avidin-agarose conjugate. The beads and capture agent were incubated for 1.5 to 2 hrs at room temperature using an orbital shaker (the plate was sealed during the incubation to avoid evaporation of the buffer). After incubation, excess solution was removed and the beads were washed with 200 μL of 1 mM TRIS HCl pH 7.5. A sample containing a protein of interest in TRIS buffer was added to the beads and the sample and beads were incubated overnight at room temperature using an orbital shaker (again using a sealed plate). The liquid was removed and the beads were washed using 200 μL of TRIS buffer. The capture agent-protein complexes, which are attached to the avidin-sepharose beads, were digested with 25 μL of trypsin in TRIS (concentration 20 μg/mL) at 45C for 45 min (again in a sealed plate). The 96 well plate containing the beads was placed in a manifold, and a vacuum was applied to collect each digest in a separate well of another 96-well plate. Using C18 ZIPTIP™ pipette tips (Millipore Corporation or equivalent) the digested peptides were extracted by prewashing the ZIPTIP™ with water/acetonitrile 1:1 then water containing 0.1% trifluoro-acetic acid, and then using the ZIPTIP™ pipette tips to capture the peptides from each well by moving each sample into and out of the tip at least 10 times, and wash the ZIPTIP™ pipette tip with water containing 0.1%TFA (trifluoroacetic acid). The peptides were eluted from the ZIPTIP™ pipette tip with MALDI matrix solution (e.g., 3-4 μL of HCCA at 0.5-1 mg/mL in actetonitrile/water or methanol/acetonitrile/water containing acetic acid) and spotted directly onto a MALDI sample plate.
The headers for each of the columns of Table 2 indicate, for each experiment, the peptide used as a capture agent. The first column of Table 2 indicates, for each experiment, the sample used. GST-CAP1, GST-FBP21, GST-14-3-3 are described above. “Brain extract” is a soluble protein extract of homogenized mouse brain, and, “QC” indicates the negative controls performed. […]

[2] = system: GST-14-3-3; assay: Peptide capture on streptavidin-agarose beads in filter plate, tryptic digestion, MALDI MS detection of bound GST-14-3-3; assay type: binding; conditions: sample GST-14-3-3; for signal size (number in brackets) of MALDI MS signal: m/z1245.7, signal size of about 1000 or more indicates significant binding; for signal size (number in brackets) of second MALDI MS signal: m/z1255.9, for SmB the signal is […]
Description: as §1, §2
(§3) The headers for each of the columns of Table 2 indicate, for each experiment, the peptide used as a capture agent. The first column of Table 2 indicates, for each experiment, the sample used. GST-CAP1, GST-FBP21, GST-14-3-3 are described above. “Brain extract” is a soluble protein extract of homogenized mouse brain, and, “QC” indicates the negative controls performed. M/z values indicate mass-to-charge ratios, and numbers in brackets indicate the size of the signal obtained, indicating the amount of the analytes present. In general, a signal size of about 1000 or more indicates significant binding.

[3] = system: GST-CAP1 (a protein having PDZ domain); assay: Peptide capture on streptavidin-agarose beads in filter plate, tryptic digestion, MALDI MS detection of bound GST-CAP1; conditions: sample GST-CAP1; m/z as printed in cell above (1358.8 or 1152.6); signal size of about 1000 or more indicates significant binding
Description: as §1, §2, §3

[4] = system: mouse brain protein extract; assay: Peptide capture of proteins from brain extract, tryptic digestion, MALDI MS; assay type: binding; conditions: for signal size of MALDI MS signal: sample brain extract (soluble protein extract of homogenized mouse brain), about 1000 or more indicates significant binding
Description: as §1
as §2, with “Using C18 ZIPTIP™ pipette tips (Millipore Corporation or equivalent) the digested peptides were extracted by prewashing the ZIPTIP™ with water/acetonitrile 1:1 then water containing 0.1% trifluoro-acetic acid, and then using the ZIPTIP™ pipette tips to capture the peptides from each well by moving each sample into and out of the tip at least 10 times, and wash the ZIPTIP™ pipette tip with water containing 0.1%TFA (trifluoroacetic acid). The peptides were eluted from the ZIPTIP™ pipette tip with MALDI matrix solution (e.g., 3-4 μL of HCCA at 0.5-1 mg/mL in actetonitrile/water or methanol/acetonitrile/water containing acetic acid) and spotted directly onto a MALDI sample plate.” left out

[5] = target: p60Src (Homo sapiens, UniProt P12931); assay: SmB immobilized on avidin beads incubated with Src, digestion, MALDI MS (QC); assay type: binding
From the text: The following were used as targets: GST-CAP1 (a protein having PDZ domain), GST-FBP21 (a protein having WW domain), GST-14-3-3, p60Src (a protooncogene tyrosine protein kinase known not to bind to any of the peptides listed above), and a mouse brain protein extract. Four of the 8 target peptides are proline-rich peptides, which are identified as SmB, CDC25, LD10 and WBP1, and are known to bind SH3 domains.
as §1, with “After digestion directly in the membrane plate, the digests were transferred to a MALDI plate for MS analysis, after concentration using a C18 resin-containing Millipore C18 ZIPTIP™ pipette tips.” left out
Significant binding was detected between several capture agents and several probes.

[6] = target: T2, GST-FBP21 (a protein having WW domain); assay: biotinylated peptide on streptavidin-agarose beads, pull-down, trypsin digest, MALDI-MS, ion m/z1138.7
[7] = target: GST-14-3-3; assay: biotinylated peptide on streptavidin-agarose beads, pull-down, trypsin digest, MALDI-MS, ion m/z1245.7
[8] = target: GST-CAP1 (a protein having PDZ domain); assay: biotinylated peptide on streptavidin-agarose beads, pull-down, trypsin digest, MALDI-MS, ion m/z1358.8
[9] = target: T2, GST-FBP21 (a protein having WW domain); assay: biotinylated peptide on streptavidin-agarose beads, pull-down, trypsin digest, MALDI-MS, ion m/z1152.8

| Molecule | signal size (number in brackets) of MALDI MS signal [1] | signal size (number in brackets) of MALDI MS signal [2] | signal size (number in brackets) of MALDI MS signal [3] | signal size [6] | signal size [7] | also measured |
| --- | --- | --- | --- | --- | --- | --- |
| Biotin-SGSGEQPLT*PVTDL [CDC25] | (500) | (0) | (480) | – | – | signal size (number in brackets) of second MALDI MS signal [2]: (800) |
| Biotin-SGSGGAPPTPPPLPP [LD10] | (15,000) | (150) | (1,600) | – | – | – |
| Biotin-SGSGGTPPPPYTVG [WBP1] | (9,000) | 0 | 0 | – | – | signal size of MALDI MS signal [4]: <100 |
| Biotin-SGSGVLIKRRST*EL-COOH [COXG] | (30,000) | (500) | 0 | – | – | signal size of MALDI MS signal [4]: <100 |
| Biotin-PPGMRPPPPGMRRGPPPPGMRPPRP [SmB] | – | (0) | 0 | – | – | binding of p60Src [5]: did not significantly bind; binding of WD11 repeat protein (WDR11) from brain extract ([4]; brain extract, spectra matched to known WD11 repeat protein (Table 3)): binds only the SmB peptide; signal size (number in brackets) of second MALDI MS signal [2]: (3,000) is |
| Biotin-SGSGVLIKRRSTEL-OH [COXD] | (200) | (3600) | (1,100) | – | – | signal size of MALDI MS signal [4]: <50 |
| Biotin-SGSGGTPPPPYTVG [WBP1 biotinylated peptide (Biotin-…)] | – | – | – | 9000 | – | – |
| B1 | – | – | – | – | 400 | signal size [8]: 250; signal size [9]: 900 |
| B2 | – | – | – | 30000 | 500 | – |
| B3 | – | – | – | – | 8000 | signal size [9]: 8000 |
| B4 | – | – | – | 200 | 3600 | signal size [8]: 1100 |
| Biotin-SGSGEQPL[pT]PVTDL [CDC25 biotinylated phosphopeptide (Biotin-…*PVTDL)] | – | – | – | 500 | – | signal size [8]: 480 |
